pEC50: −log10 of the molar value. *1 amine or outer side, *2 acyl side, *3 side chain or, on linkers, in order; H or OH if unused. Where a SMILES comes first, the peptide text is derived from it. Side-chain parts run from the residue outwards. [ ]: non-standard residue; d: D form. The star is where a group is joined. C20 diacid = O=C(O)CCCCCCCCCCCCCCCCCCC(=O)*; γGlu = O=C(O)[C@H](CCC(=O)[*:2])N[*:1]; AEEA = NCCOCCOCC(=O)O; Aib = CC(C)(N)C(=O)O
Target: T1, human GLP-2 receptor (Homo sapiens, UniProt O95838, D470N)
T1 construct: expressed in transfected cells
T1 sequence (O95838 1-553 D470N): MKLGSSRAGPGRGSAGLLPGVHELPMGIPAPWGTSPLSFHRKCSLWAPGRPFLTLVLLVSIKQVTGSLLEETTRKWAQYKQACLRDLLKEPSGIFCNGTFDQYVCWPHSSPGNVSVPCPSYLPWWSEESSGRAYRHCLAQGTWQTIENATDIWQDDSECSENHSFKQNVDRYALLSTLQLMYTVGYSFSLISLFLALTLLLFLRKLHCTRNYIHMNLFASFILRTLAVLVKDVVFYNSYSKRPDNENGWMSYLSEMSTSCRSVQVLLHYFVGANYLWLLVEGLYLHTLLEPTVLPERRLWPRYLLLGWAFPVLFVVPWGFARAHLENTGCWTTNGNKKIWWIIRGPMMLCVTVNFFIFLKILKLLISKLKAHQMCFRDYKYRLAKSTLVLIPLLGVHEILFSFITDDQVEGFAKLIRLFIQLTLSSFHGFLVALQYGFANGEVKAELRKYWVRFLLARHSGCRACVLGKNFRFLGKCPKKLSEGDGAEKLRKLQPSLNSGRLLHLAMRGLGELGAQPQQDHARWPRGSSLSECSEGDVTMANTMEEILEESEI
Experiment: GLP-2 receptor potency assay (cAMP ALPHASCREEN, HEK293 cells stably expressing GLP-2 R)
Type: cell-based
Details: cAMP response, HEK293 cells expressing human GLP-2 R; read-out: EC50 GLP-2
Excerpt: One useful in vitro assay for measuring GLP-1 and GLP-2 receptor activity is quantitation of cAMP, i.e. 3′-5′-cyclic adenosine monophosphate, which is a second messenger essential in many biological processes, and one of the most ubiquitous mechanisms for regulating cellular functions.
For subcloning into a mammalian expression vector, primers for subcloning were obtained from DNA-Technology, Risskov, Denmark. The 5′ and 3′ primers used for the PCR reaction include terminal restriction sites for cloning and the context of the 5′ primer is modified to a Kozak consensus without changing the sequence of the product encoded by the ORF. […] The generated PCR product was purified using GFX PCR and Gel band purification kit, digested with restriction enzymes and cloned into the mammalian expression vector using Rapid DNA Ligation Kit. Ligation reaction was transformed to XL10 Gold Ultracompetent cells and colonies were picked for DNA production using ENDOFREE® Plasmid maxi kit. Subsequent sequence analysis was conducted by MWG Eurofins, Germany.
HEK293 cells were transfected using the LIPOFECTAMINE® PLUS transfection method. The day before transfection, HEK293 cells were seeded in two T75 flasks at a density of 2×10^6 cells/T75 flask in cell culturing medium without antibiotics. On the day of transfection, cells were washed with 1× DPBS and medium was replaced with OPTI-MEM© to a volume of 5 mL/T75 flask before addition of LIPOFECTAMINE®-plasmid complexes were added gently and drop wise to the cells in T75 flasks and replaced with growth medium after 3 hours and again to growth medium supplemented with 500 μg/mL G418 after 24 hours. Following 4 weeks in G418 selection, clones were picked and tested in a functional GLP-2 receptor potency assay as described below.
The cAMP ALPHASCREEN® assay from Perkin Elmer was used to quantitate the cAMP response to activation of the GLP1 and GLP2 receptor, respectively. […] Data from test compounds eliciting an increase in the intracellular level of cAMP were normalized relative to the positive and negative control (vehicle) to calculate the EC50 and maximal response from the concentration response curve.

Structure (SMILES)	pEC50
CC[C@H](C)[C@H](NC(=O)[C@H](Cc1ccccc1)NC(=O)[C@H](CC(=O)O)NC(=O)[C@H](CCCNC(=N)N)NC(=O)[C@H](C)NC(=O)[C@H](C)NC(=O)[C@H](CCCCN)NC(=O)[C@H](CCCCNC(=O)COCCOCCNC(=O)COCCOCCNC(=O)CC[C@H](NC(=O)CCCCCCCCCCCCCCCCCCC(=O)O)C(=O)O)NC(=O)[C@H](CC(=O)O)NC(=O)[C@H](CC(C)C)NC(=O)[C@@H](NC(=O)[C@@H](NC(=O)[C@H](C)NC(=O)[C@H](CC(C)C)NC(=O)[C@H](CCC(=O)O)NC(=O)[C@H](CO)NC(=O)[C@@H](NC(=O)[C@H](Cc1ccccc1)NC(=O)[C@H](CO)NC(=O)CNC(=O)[C@H](CCC(=O)O)NC(=O)C(C)(C)NC(=O)[C@@H](N)Cc1c[nH]cn1)[C@@H](C)O)[C@@H](C)O)[C@@H](C)CC)C(=O)N[C@@H](C)C(=O)N[C@@H](Cc1c[nH]c2ccccc12)C(=O)N[C@@H](CC(C)C)C(=O)N[C@H](C(=O)N[C@@H](CCC(=O)O)C(=O)N[C@@H](Cc1c[nH]cn1)C(=O)N[C@@H](CCCCN)C(=O)N[C@H](C(=O)N[C@H](C(=O)N[C@@H](CC(=O)O)C(=O)O)[C@@H](C)O)[C@@H](C)CC)[C@@H](C)CC [Compound 43] (H-H[Aib]EGSFTSELATILDK([AEEA-AEEA-γGlu-C20 diacid])KAARDFIAWLIEHKITD-OH)	9.82
CC[C@H](C)[C@H](NC(=O)[C@H](Cc1ccccc1)NC(=O)[C@H](CC(=O)O)NC(=O)[C@H](CCCCNC(=O)COCCOCCNC(=O)COCCOCCNC(=O)[C@H](CCCCN)NC(=O)[C@H](CCC(=O)O)NC(=O)[C@H](CCCCN)NC(=O)CC[C@H](NC(=O)CCCCCCCCCCCCCCCCCCC(=O)O)C(=O)O)NC(=O)[C@H](C)NC(=O)[C@H](C)NC(=O)[C@H](CCC(N)=O)NC(=O)[C@H](CCC(=O)O)NC(=O)[C@H](CC(=O)O)NC(=O)[C@H](CC(C)C)NC(=O)[C@@H](NC(=O)[C@@H](NC(=O)[C@H](C)NC(=O)[C@H](CC(C)C)NC(=O)[C@H](CCC(=O)O)NC(=O)[C@H](CO)NC(=O)[C@@H](NC(=O)[C@H](Cc1ccccc1)NC(=O)[C@H](CO)NC(=O)CNC(=O)[C@H](CCC(=O)O)NC(=O)C(C)(C)NC(=O)[C@@H](N)Cc1c[nH]cn1)[C@@H](C)O)[C@@H](C)O)[C@@H](C)CC)C(=O)N[C@@H](C)C(=O)N[C@@H](Cc1c[nH]c2ccccc12)C(=O)N[C@@H](CC(C)C)C(=O)N[C@H](C(=O)N[C@@H](CCC(=O)O)C(=O)N[C@@H](Cc1c[nH]cn1)C(=O)N[C@@H](CCCCN)C(=O)N[C@H](C(=O)N[C@H](C(=O)N[C@@H](CC(=O)O)C(=O)O)[C@@H](C)O)[C@@H](C)CC)[C@@H](C)CC [Compound 66] (H-H[Aib]EGSFTSELATILDEQAAK([AEEA-AEEA-Lys-Glu-Lys-γGlu-C20 diacid])DFIAWLIEHKITD-OH)	9.74
CC[C@H](C)[C@H](NC(=O)[C@H](Cc1ccccc1)NC(=O)[C@H](CC(=O)O)NC(=O)[C@H](CCCNC(=N)N)NC(=O)[C@H](C)NC(=O)[C@H](C)NC(=O)[C@H](CC(C)C)NC(=O)[C@H](CCCCNC(=O)CC[C@H](NC(=O)CCCCCCCCCCCCCCCCC(=O)O)C(=O)O)NC(=O)[C@H](CC(=O)O)NC(=O)[C@H](CC(C)C)NC(=O)[C@@H](NC(=O)[C@@H](NC(=O)[C@H](C)NC(=O)[C@H](CC(C)C)NC(=O)[C@H](CCC(=O)O)NC(=O)[C@H](CO)NC(=O)[C@@H](NC(=O)[C@H](Cc1ccccc1)NC(=O)[C@@H](NC(=O)CNC(=O)[C@H](CCC(=O)O)NC(=O)C(C)(C)NC(=O)[C@@H](N)Cc1c[nH]cn1)[C@@H](C)O)[C@@H](C)O)[C@@H](C)O)[C@@H](C)CC)C(=O)N[C@@H](C)C(=O)N[C@@H](Cc1c[nH]c2ccccc12)C(=O)N[C@@H](CC(C)C)C(=O)N[C@H](C(=O)N[C@@H](CCC(=O)O)C(=O)N[C@@H](Cc1c[nH]cn1)C(=O)N[C@@H](CCCCN)C(=O)N[C@H](C(=O)N[C@H](C(=O)N[C@@H](CC(=O)O)C(=O)O)[C@@H](C)O)[C@@H](C)CC)[C@@H](C)CC [Compound 12] (HELM PEPTIDE1{H.[Aib].E.G.T.F.T.S.E.L.A.T.I.L.D.K.L.A.A.R.D.F.I.A.W.L.I.E.H.K.I.T.D}|PEPTIDE2{[O=C(O)CCCCCCCCCCCCCCCCC(=O)[*:2]].[gGlu]}$PEPTIDE1,PEPTIDE2,16:R3-2:R2$$$V2.0)	9.96
CC[C@H](C)[C@H](NC(=O)[C@H](Cc1ccccc1)NC(=O)[C@H](CC(=O)O)NC(=O)[C@H](CCCNC(=N)N)NC(=O)[C@H](C)NC(=O)[C@H](C)NC(=O)[C@H](CCC(N)=O)NC(=O)[C@H](CCCCNC(=O)COCCOCCNC(=O)[C@H](CCCCN)NC(=O)[C@H](CCC(=O)O)NC(=O)[C@H](CCCCN)NC(=O)CC[C@H](NC(=O)CCCCCCCCCCCCCCCCCCC(=O)O)C(=O)O)NC(=O)[C@H](CC(=O)O)NC(=O)[C@H](CC(C)C)NC(=O)[C@@H](NC(=O)[C@@H](NC(=O)[C@H](C)NC(=O)[C@H](CC(C)C)NC(=O)[C@H](CCC(=O)O)NC(=O)[C@H](CO)NC(=O)[C@@H](NC(=O)[C@H](Cc1ccccc1)NC(=O)[C@H](CO)NC(=O)CNC(=O)[C@H](CCC(=O)O)NC(=O)C(C)(C)NC(=O)[C@@H](N)Cc1c[nH]cn1)[C@@H](C)O)[C@@H](C)O)[C@@H](C)CC)C(=O)N[C@@H](C)C(=O)N[C@@H](Cc1c[nH]c2ccccc12)C(=O)N[C@@H](CC(C)C)C(=O)N[C@H](C(=O)N[C@@H](CCC(=O)O)C(=O)N[C@@H](Cc1c[nH]cn1)C(=O)N[C@@H](CCCCN)C(=O)N[C@H](C(=O)N[C@H](C(=O)N[C@@H](CC(=O)O)C(=O)O)[C@@H](C)O)[C@@H](C)CC)[C@@H](C)CC [Compound 57] (HELM PEPTIDE1{H.[Aib].E.G.S.F.T.S.E.L.A.T.I.L.D.K.Q.A.A.R.D.F.I.A.W.L.I.E.H.K.I.T.D}|PEPTIDE2{[O=C(O)CCCCCCCCCCCCCCCCCCC(=O)[*:2]].[gGlu].K.E.K.[O=C(COCCOCCN[*:1])[*:2]]}$PEPTIDE1,PEPTIDE2,16:R3-6:R2$$$V2.0)	10.08
CC[C@H](C)[C@H](NC(=O)[C@H](Cc1ccccc1)NC(=O)[C@H](CC(=O)O)NC(=O)[C@H](CCCNC(=N)N)NC(=O)[C@H](C)NC(=O)[C@H](C)NC(=O)[C@H](CCC(=O)O)NC(=O)[C@H](CCCCNC(=O)CC[C@H](NC(=O)CCCCCCCCCCCCCCCCC(=O)O)C(=O)O)NC(=O)[C@H](CC(=O)O)NC(=O)[C@H](CC(C)C)NC(=O)[C@@H](NC(=O)[C@@H](NC(=O)[C@H](C)NC(=O)[C@H](CC(C)C)NC(=O)[C@H](CCC(=O)O)NC(=O)[C@H](CO)NC(=O)[C@@H](NC(=O)[C@H](Cc1ccccc1)NC(=O)[C@@H](NC(=O)CNC(=O)[C@H](CCC(=O)O)NC(=O)C(C)(C)NC(=O)[C@@H](N)Cc1c[nH]cn1)[C@@H](C)O)[C@@H](C)O)[C@@H](C)O)[C@@H](C)CC)C(=O)N[C@@H](C)C(=O)N[C@@H](Cc1c[nH]c2ccccc12)C(=O)N[C@@H](CC(C)C)C(=O)N[C@H](C(=O)N[C@@H](CCC(=O)O)C(=O)N[C@@H](Cc1c[nH]cn1)C(=O)N[C@@H](CCCCN)C(=O)N[C@H](C(=O)N[C@H](C(=O)N[C@@H](CC(=O)O)C(=O)O)[C@@H](C)O)[C@@H](C)CC)[C@@H](C)CC [Compound 3] (HELM PEPTIDE1{H.[Aib].E.G.T.F.T.S.E.L.A.T.I.L.D.K.E.A.A.R.D.F.I.A.W.L.I.E.H.K.I.T.D}|PEPTIDE2{[O=C(O)CCCCCCCCCCCCCCCCC(=O)[*:2]].[gGlu]}$PEPTIDE1,PEPTIDE2,16:R3-2:R2$$$V2.0)	9.48

From patent publication US11395847B2, “Acylated GLP-1/GLP-2 dual agonists” (Zealand Pharma A/S, priority 2016, dated 2022)
